Measurements from patent publication US9145424B2, “Treatment of amyotrophic lateral sclerosis” (Northwestern University, priority 2008, dated 2015).
Entries after “also recorded” stand apart in the source; their conditions may differ. Where two headings read alike, the source gives them in different places. Where a SMILES comes first, the peptide text is derived from it. The star is where a group is joined. Cbz = O=C(OCc1ccccc1)*

Experiments:
[1] = In vitro ADME: metabolic potential / microsomal stability, species not stated
Description: Metabolism (microsome, S9 fraction, CYP450): Liver Cytochrome P450 (CYP450) enzymes are the major route for xenobiotic metabolism and microsomal and hepatocyte stability is the best predictor of pharmacokinetic half-life. Cross-species comparisons of metabolism in liver microsomes can predict potential issues with liver toxicity in humans. Selected active compounds are tested in liver microsomes from efficacy species (mouse), toxicity species (rat, dog, monkey), and humans for metabolic stability.
CMB-003319 was evaluated for its in vitro ADME properties.
Compounds were sent for in vitro ADME tests to evaluate their ADME properties.

[2] = In vitro plasma stability; assay type: in vitro ADME
Description: Plasma stability: Plasma stability of active compounds is assessed in efficacy species (mouse), toxicity species (rat, dog, monkey), and human cells.

[3] = assay type: in vitro ADME; conditions: male, Sprague Dawley, 15 μM, pH 7.4; for % Mean ± S.E. / RR Mean (Response Ratio): rat
Aqueous solubility = assay type: physicochemical
Description: Solubility: Because compounds are stored in DMSO, it is necessary to determine aqueous solubility of initial hit compounds and their analogs. High solubility in aqueous solution is necessary for high GI absorption, bioavailability, and for chemical formulation. Compounds should be soluble in aqueous solution at >10 μg/ml. Solubility of >50 μg/ml is preferred.

Caco-2 = experiment: In vitro Caco-2 permeability; assay type: in vitro ADME
Description: General Permeability: High membrane permeability is required for effective GI absorption and optimal bioavailability. Passive permeability is typically assessed in the PAMPA artificial membrane assay (Kansy et al., J. Med. Chem. 2002, 45(8), 1712-1722). Cell-based permeability determinations using the Caco-2 cell assay are more resource intensive but more predictive of active transport or efflux in vivo (Artursson et al., Adv. Drug. Deliv. Rev. 2001, 46(1-3), 27-43). Caco-2 assays are performed as needed during SAR development.

[4] = tested on: proteasome activity (Ubi-YFP degradation); experiment: Proteasome activity assay (Ubi-YFP in HeLa cells); assay type: cell-based
Description: FIG. 7. Arylsulfanyl pyrazolones prevent MG132-induced accumulation of Ubi-YFP. HeLa cells were co-transfected with Ubi-YFP and CMV-CFP plasmids, treated with 1 μM MG132 and 25 μM arylsulfanyl pyrazolones and Ubi-YFP fluorescence intensity normalized to CFP.
Since the CMB-003299 cytotoxicity of SOD1 protein aggregates may involve inhibition of proteasome activity, compounds that stimulate proteasome activity could reverse or prevent mutant SOD1-induced cytotoxicity. Thus, active compounds were tested for the ability to stimulate proteasome activity using a cell line expressing ubiquitin-conjugated YFP [Ubi-YFP 74]. In these cells, increased proteasome activity causes increased degradation of Ubi-YFP and decreased YFP fluorescence. Conversely, compounds that inhibit proteasome activity increase accumulation of Ubi-YFP and enhanced YFP fluorescence. As expected, MG132 augments YFP fluorescence intensity ˜3-fold compared to untreated controls (FIG. 7). […] Protein aggregates are present in the absence of MG132 and aggregation is suppressed following treatment with a provided compound.
HeLa cells (20,000/chamber) were plated on 8 chambered Tissue-tek coverglass pretreated with 1 mg/ml poly-D-lysine and allowed to adhere for 18 h at 37° C./5% CO2. Cells were transfected with 0.2 μg each CMV-CFP and Ubi-YFP plasmids using Lipofectamine 2000 according to manufacturer's instructions. Cells were allowed to express CFP and Ubi-YFP for 18 h followed by a 6 h incubation with test compounds (25 μM). MG132 (1 μM) was added for a final 18 h incubation and Ubi-YFP degradation assessed by fluorescence microscopy. Fluorescence intensity of CFP and YFP was calculated on a cell-by-cell basis from captured images using AxioVision software (Zeiss). YFP fluorescence was normalized to CFP fluorescence.

human HSP70 promoter = experiment: Activation of cellular heat shock response (HeLa hse-luc luciferase reporter); assay type: cell-based; conditions: 8 h
Description: FIG. 6. Arylsulfanyl pyrazolones fail to induce heat shock response in Hsp 70 promoter assays. HeLa hse-luc cells were treated with arylsulfanyl pyrazolones (1 μM-100 μM), celestrol (1 μM-5 μM), or CdCl2 (10 μM-100 μM), for 8 h and activation of the heat shock response determined by HSP70 promoter activity.
Mechanism of action studies have been initiated for provided compounds. provided compounds active in the cytotoxicity protection assay were initially assayed for the ability to prevent SOD1 aggregation using manual, low-throughput methods. […] The ability of provided compounds to induce expression of molecular chaperones was also tested using stably-transfected HeLa cells (HeLa hse-luc) expressing a luciferase reporter gene under the control of the human HSP70 promoter. This HeLa hse-luc reporter system was used previously to identify small-molecule activators of the heat shock response (Westerheide et al. J. Biol. Chem. 2004, 279(53), 56053-56060).
HeLa cells, stably transfected with a luciferase reporter plasmid under control of the HSP70 promoter, were plated in a 96 well plate at a density of 7500 cells/100 μl. […] Cells were lysed by the addition of 100 μl BrightGlo reagent (Promega) according to manufacturer's instructions and luciferase activity measured by quantifying luminescence signal. […]

[5] = tested on: PC12 cells expressing wild-type SOD1; experiment: SOD1 protein aggregation, wild type control line; assay type: cell-based; conditions: cells treated with MG132
Description: FIGS. 3A-F. Mutant but not wild type SOD1 aggregates in cells treated with the proteasome inhibitor MG132. Fluorescence micrographs of PC12 cells expressing YFP tagged wild type (WT), G93A mutant (G93A), and G85R mutant (G85R)SOD1 proteins (3A-C). The micrographs show the effects of treating cells with 200 nM MG132 for 24 hours (untreated cells are shown in insets on left, 3D-F, respectively). The wild type SOD1 expressing cells are unaffected while cells expressing mutant SOD1 show large perinuclear aggregates.
(§1) In PC12 cells that express wild-type SOD1, SOD1 was diffusely localized throughout the cell (Matsumoto et al., J. Cell. Biol. 2005, 171(1), 75-85). […] Therefore, these effects are likely to be due to MG132-induced proteasome inhibition, and not due to an off-target effect of MG132.

[6] = tested on: PC12 cells expressing G93A mutant SOD1; experiment: Mutant SOD1 protein aggregation; assay type: cell-based
Description: as §1
The identification of a positive control is a crucial step in assay development. Thus, PC12 cells expressing G85R or G93A mutant SOD1 were treated with MG132 to induce protein aggregation, and then co-treated with candidate chemical suppressors of protein aggregation. Two compounds with similar activity were identified in these experiments: geldanamycin and radicicol. Both compounds induce heat shock transcription factor […], which in turn induces the heat shock response (FIG. 4).
Mechanism of action studies have been initiated for provided compounds. provided compounds active in the cytotoxicity protection assay were initially assayed for the ability to prevent SOD1 aggregation using manual, low-throughput methods. […] The ability of provided compounds to induce expression of molecular chaperones was also tested using stably-transfected HeLa cells (HeLa hse-luc) expressing a luciferase reporter gene under the control of the human HSP70 promoter. […]

[7] = tested on: PC12 cells expressing no SOD1, wild type SOD1 and G85R SOD1; experiment: Sensitivity of PC12 cells to proteasome inhibitor, calcein-AM viability; assay type: cell-based
Description: (§2) FIGS. 1A-C. […] Cell survival was determined using the viability stain calcein-AM.

[8] = tested on: PC12 cells expressing G93A SOD1; experiment: as above; assay type: cell-based
Description: as §2

[9] = tested on: PC12 cells expressing G85R SOD1; experiment: Mutant SOD1 protein aggregation assay; assay type: cell-based
Excerpt: Compounds that are active in the above assay could theoretically protect against mutant SOD1-induced cytotoxicity through a number of mechanisms, including the following: 1) compounds could nonspecifically block or reverse protein aggregation via chaperone induction, as observed for radicicol and geldanamycin; 2) compounds could block or reverse the aggregation of a specific aggregated protein form; 3) compounds could interfere with an event downstream of protein aggregation that plays a critical role in mutant SOD1-induced cytotoxicity (e.g., proteasome function); and 4) compounds could act directly on SOD1 in a manner that prevents mutant SOD1 aggregation. These possibilities were tested using an assay that directly measures protein aggregation. In addition, unlike the high throughput cytotoxicity protection assay, the protein aggregation assay is based on G85R SOD1; this broadens the scope of the screening strategy, and should eliminate compounds with highly specific activity (i.e., G93A SOD1 limited) against protein aggregation.
as §1
The identification of a positive control is a crucial step in assay development. Thus, PC12 cells expressing G85R or G93A mutant SOD1 were treated with MG132 to induce protein aggregation, and then co-treated with candidate chemical suppressors of protein aggregation. […]
To allow this assay to be used in a high-throughput manner, a Cellomics Arrayscan® high content microscopy system was used for screening and quantification. […]
Arrayscan images were recorded using a 20× objective and the XF93-TRITC filter set in channel 1 for the Image-iT WGA plasma membrane dye or the XF93-FITC filter set for SOD1-YFP and analyzed using Cellomics spot detector software. […] Data were recorded as spot count (aggregate)/object (cell).

[10] = tested on: PC12 cells that express mutant G93A SOD1; experiment: Mutant SOD1-induced cytotoxicity protection assay; conditions: rat, 48 h
Description: This idea was tested by examining the sensitivity of PC12 cells to SOD1 aggregates in the presence and absence of proteasome inhibitor MG132. PC12 cells expressing no SOD1, wild type SOD1, G85R SOD1 or G93A SOD1 were grown with or without MG132 (FIG. 1).
PC12 cells expressing G93A SOD1 were treated with 100 nM MG132 with or without co-treatment with geldanamycin or radicicol.

[11] = NADPH dependent rat liver microsomal metabolite study by HPLC; assay type: in vitro ADME; conditions: NADPH dependent rat liver microsomes, up to 60 minutes
Description: TC-II-68 and TC-II-70 were proposed as possible metabolites and prepared before the study.
After 0, 5, 10, 20, 40, and 60 minutes incubation with rat liver microsome, 50 μL acetonitrile was added to quench reactions. The reaction mixture was vortexed and incubated in an ice bath for 2 h. The samples were centrifuged to remove the precipitated protein. The supernatant solutions were loaded directly for HPLC analysis.

With `Cc1cc(SCc2cc(=O)[nH][nH]2)c(Cl)cc1Cl` [CMB-003319] as the molecule, how does the metabolic potential [1] read?
Its metabolic potential is “medium”.

What about the “plasma stability, in words” value [2] of the same molecule?
The value was “poor”.

What about the “rat liver microsomal stability, in words” value [3] of the same molecule?
The value was “poor microsomal stability”.

What about the “aqueous-solubility, in words” value (Aqueous solubility) of the same molecule?
The value was “medium”.

What about the “CaCO-2 permeability, in words” value (Caco-2) of the same molecule?
Its value is “medium”.

What about the “effect on MG132-induced Ubi-YFP fluorescence” value ([4]; 25 μM compound, 1 μM MG132) of the same molecule?
The value was “strongly inhibit”.

For `[Cl][Cd][Cl]` [CdCl2], which “luciferase activity (HSP70 promoter)” value (human HSP70 promoter) is on record?
Its value is “strongly induced luciferase activity”.

What does the source list for `CC(C)C[C@@H](C=O)NC(=O)[C@H](CC(C)C)NC(=O)[C@H](CC(C)C)NC(=O)OCc1ccccc1` [MG132] (Cbz-Leu-Leu-Leu-aldehyde)?
aggregation, in words [5]: no aggregation was observed; cells with protein aggregates ([6]; following treatment with MG132): ~75%; toxicity, in words ([7]; 100 nM, 24 hours, any of the cell lines): no toxicity; IC50 ([7]; Rattus norvegicus, PC-12, cells expressing no SOD1, wild type SOD1 and G85R SOD1, read-out: IC50 of proteasome inhibitor on cell viability): ~400 nM; sensitivity of G93A SOD1 cells relative to the other lines [8]: approximately 5 fold; toxicity, in words ([8]; 100 nM, 48 hours): selectively toxic; IC50 ([8]; Rattus norvegicus, PC-12, read-out: IC50 of proteasome inhibitor on cell viability): ~75 nM; cells containing protein aggregates ([9]; cells treated with MG132): up to 75%; YFP fluorescence intensity compared to untreated controls ([4]; 1 μM): ~3 fold

Which “efficacy (maximum viability at optimum dosage)” value [10] does the source give for `C[C@@H]1C[C@H]2O[C@@H]2/C=C\C=C\C(=O)Cc2c(Cl)c(O)cc(O)c2C(=O)O1` [Radicicol, reference compound] here?
The value was 80%.

What about the “effect on protein aggregation, in words” value ([6]; MG132-treated cells) of the same molecule?
Its value is “reduced formation of protein aggregates”.

What about the “proportion of cells with aggregates” value ([9]; G85R or G93A mutant SOD1 cells, MG132 plus co-treatment, 75% without) of the same molecule?
The value was 25%.

What about the “effect on protein aggregation, in words” value ([9]; MG132-induced aggregation) of the same molecule?
Its value is “decreases mutant SOD1 aggregation”.

Which “% Mean ± S.E.” value ([3]; 0 min) does the source give for `O=c1cc(CSc2ccc(Cl)cc2)[nH][nH]1` [TC-I-165, 5-((4-Chlorophenylthio)methyl)-1H-pyrazol-3(2H)-one] here?
Its value is 100 ± 26.4%.

And the “RR Mean (Response Ratio)” value ([3]; 0 min)?
Its value is 2.529.

And the “% Mean ± S.E.” value ([3]; 20 min)?
The value was 12.4 ± 0.89%.

And the “RR Mean (Response Ratio)” value ([3]; 20 min)?
The value was 0.314.

What about the microsomal metabolites [11] of the same molecule?
The microsomal metabolites was “only TC-II-68 was a direct metabolite; also recorded: the only direct metabolite from TC-I-165 was TC-II-68; also recorded: TC-II-70 is not a metabolite”.

For `CC1=C(O)C(=O)C=C2C1=CC=C1[C@@]2(C)CC[C@@]2(C)[C@@H]3C[C@](C)(C(=O)O)CC[C@]3(C)CC[C@]12C` [celastrol, celestrol], which “luciferase activity (HSP70 promoter)” value (human HSP70 promoter) is on record?
The value was “strongly induced luciferase activity”.
